What was measured:
[1] = test system: MMTV-neu mice (neu oncogene, mimics HER2+ breast cancer); test: Mammary tumor onset (latency) and incidence in MMTV-neu mice given oral HRT diet and/or nocturnal melatonin in drinking water; format: in vivo
Source text: (§1) We studied the effects of the present combination therapy as follows. We chose a mouse model, MMTV-neu mice, which express the neu oncogene that mimics HER2+ breast cancer. In a population of mice, both melatonin and HRT were given orally to correlate with the dosage method in women, basing the dosing on diet based on the calories an average woman consumes daily, namely, 1800 kcal, but adjusting for the small size and metabolism of the mice. Estrogen+progestin HRT contained the bioidentical hormones 17β-estradiol (E2) at the currently recommended dosage for women (0.5 mg/1800 kcal) and progesterone (P4) at half of the recommended dose (50 mg/1800 kcal). For example, the daily mouse dose would be less than 500 mcg progesterone (P4). Melatonin was provided in the drinking water at a concentration of 15 mg/L (dose equivalent to a 5 mg tablet for women) only during the night to supplement the normal nocturnal surge in endogenous melatonin. Using drinking water rather than food to administer melatonin allowed the mice continual access to the control and HRT diets, instead of just during the night (dark cycle).
Referring now to FIG. 1, survival curves are shown which represent the age of primary mammary tumor onset in weeks, on the x axis, and percent mammary tumor incidence on the y axis. FIG. 1a represents age of primary mammary tumor onset and incidence between control (C/V) vs. melatonin (C/M) groups, with C signifying no hormone administration, V signifying no melatonin administration, and M signifying melatonin administration. FIG. 1b represents control vs. HRT (HRT/V) groups, with C signifying no hormone administration, V signifying no melatonin administration, and with HRT signifying Hormone Replacement Therapy (in FIG. 1b, without melatonin, or “V”). FIG. 1c represents the results of HRT/V versus HRT/M administration (M=melatonin) and FIG. 1d represents the results of CN versus HRT/M administration. […] No change in body weight occurred as a result of the treatments. […] FIG. 1c represents HRT vs. HRT plus melatonin; FIG. 1d represents control versus HRT plus melatonin.

[2] = test system: RNA expression in the lower mammary gland; test: RNA expression in the lower mammary gland by microarray analysis; format: in vivo, mice
Method: FIG. 3 reports aggregated data regarding thousands of RNA fragments tested for over- or under-expression of more than one and one-half times more or less expression than in control, for mice treated with C/C (no hormone, no melatonin control), C/M (no hormone/melatonin), EMP/C (estrogen/mid progesterone (that is, half the recommended dose of progesterone, or 50 mg (P4)) but no melatonin) and EMP/M (estrogen/mid progesterone (that is, half the recommended dose of progesterone, or 50 mg (P4)) and melatonin).

[3] = test system: mammary tumors in MMTV-neu mice; test: Mammary tumor growth and progression (tumor weight, volume, metastatic incidence), same study; format: in vivo; conditions: compared to control animals (FIG. 2)
Source text: as §1

COc1ccc2[nH]cc(CCNC(C)=O)c2c1 [melatonin]
incidence of mammary cancer, in words ([1]; compared to control animals): did not modify | latency of mammary cancer (age of primary tumor onset), in words ([1]; compared to control animals): did not modify | incidence of mammary cancer (animals with tumor/animals in group) ([1]; control 44/57): 42/57 | incidence of mammary cancer ([1]; control 77%): 74% | RNA expression changes (upregulation and downregulation), in words [2]: limited number of RNA expression changes | tumor volume [3]: significant decrease | tumor weight [3]: significant decrease

Source: patent US9370526B2, “Combination hormone replacement therapy (HRT) and melatonin to prevent and treat mammary cancer” (Duquesne University of the Holy Spirit, priority 2009, dated 2016)
